pIC50: −log10 of the molar value.
Tests used:
Bile salt export pump [1] = target: Bile salt export pump (Rattus norvegicus, UniProt O70127); test: Inhibition of Sprague-Dawley rat Bsep expressed in plasma membrane vesicles of Sf21 cells assessed as inhibition of ATP-dependent [3H]taurocholate uptake; type: cell membranes
Bile salt export pump [2] = target: Bile salt export pump (Homo sapiens, UniProt O95342); test: Inhibition of human BSEP expressed in plasma membrane vesicles of Sf21 cells assessed as inhibition of ATP-dependent [3H]taurocholate uptake; type: cell membranes
Chain of Bile salt export pump (Homo sapiens, UniProt O95342) (O95342 whole entry): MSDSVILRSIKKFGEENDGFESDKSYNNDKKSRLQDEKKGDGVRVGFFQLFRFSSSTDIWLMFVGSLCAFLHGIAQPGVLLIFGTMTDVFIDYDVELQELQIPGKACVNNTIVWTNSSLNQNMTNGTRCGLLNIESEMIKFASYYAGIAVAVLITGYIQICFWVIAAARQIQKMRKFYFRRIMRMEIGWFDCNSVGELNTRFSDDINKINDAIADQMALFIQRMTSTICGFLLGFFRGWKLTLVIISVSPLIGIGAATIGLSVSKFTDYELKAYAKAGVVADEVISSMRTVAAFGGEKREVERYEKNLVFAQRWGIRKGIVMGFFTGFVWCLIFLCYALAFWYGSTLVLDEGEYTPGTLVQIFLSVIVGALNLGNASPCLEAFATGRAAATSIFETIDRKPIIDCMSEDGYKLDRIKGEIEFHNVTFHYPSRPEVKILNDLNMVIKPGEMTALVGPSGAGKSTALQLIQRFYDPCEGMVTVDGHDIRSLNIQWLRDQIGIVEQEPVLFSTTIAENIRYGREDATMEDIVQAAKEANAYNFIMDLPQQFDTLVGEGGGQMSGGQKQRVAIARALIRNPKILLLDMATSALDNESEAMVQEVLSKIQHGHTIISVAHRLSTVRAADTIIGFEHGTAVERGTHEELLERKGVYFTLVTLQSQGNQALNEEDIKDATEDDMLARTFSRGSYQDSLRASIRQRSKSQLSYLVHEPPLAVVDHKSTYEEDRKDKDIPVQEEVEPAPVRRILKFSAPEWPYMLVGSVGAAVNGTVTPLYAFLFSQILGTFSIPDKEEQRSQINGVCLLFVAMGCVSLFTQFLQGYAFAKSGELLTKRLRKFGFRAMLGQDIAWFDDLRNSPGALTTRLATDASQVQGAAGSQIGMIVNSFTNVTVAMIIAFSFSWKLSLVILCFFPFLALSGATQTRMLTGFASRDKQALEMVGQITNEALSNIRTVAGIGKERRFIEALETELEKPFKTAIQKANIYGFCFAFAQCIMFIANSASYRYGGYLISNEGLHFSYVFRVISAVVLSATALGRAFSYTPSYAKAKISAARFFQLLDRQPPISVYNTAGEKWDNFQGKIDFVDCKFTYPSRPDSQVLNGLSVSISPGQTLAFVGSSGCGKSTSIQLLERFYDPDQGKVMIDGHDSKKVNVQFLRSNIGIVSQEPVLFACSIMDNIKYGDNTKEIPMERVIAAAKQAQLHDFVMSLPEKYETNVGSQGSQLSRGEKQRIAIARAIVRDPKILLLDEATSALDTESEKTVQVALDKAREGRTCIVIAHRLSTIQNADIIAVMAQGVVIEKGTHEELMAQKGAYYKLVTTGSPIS

Chain of Bile salt export pump (Rattus norvegicus, UniProt O70127) (O70127 whole entry): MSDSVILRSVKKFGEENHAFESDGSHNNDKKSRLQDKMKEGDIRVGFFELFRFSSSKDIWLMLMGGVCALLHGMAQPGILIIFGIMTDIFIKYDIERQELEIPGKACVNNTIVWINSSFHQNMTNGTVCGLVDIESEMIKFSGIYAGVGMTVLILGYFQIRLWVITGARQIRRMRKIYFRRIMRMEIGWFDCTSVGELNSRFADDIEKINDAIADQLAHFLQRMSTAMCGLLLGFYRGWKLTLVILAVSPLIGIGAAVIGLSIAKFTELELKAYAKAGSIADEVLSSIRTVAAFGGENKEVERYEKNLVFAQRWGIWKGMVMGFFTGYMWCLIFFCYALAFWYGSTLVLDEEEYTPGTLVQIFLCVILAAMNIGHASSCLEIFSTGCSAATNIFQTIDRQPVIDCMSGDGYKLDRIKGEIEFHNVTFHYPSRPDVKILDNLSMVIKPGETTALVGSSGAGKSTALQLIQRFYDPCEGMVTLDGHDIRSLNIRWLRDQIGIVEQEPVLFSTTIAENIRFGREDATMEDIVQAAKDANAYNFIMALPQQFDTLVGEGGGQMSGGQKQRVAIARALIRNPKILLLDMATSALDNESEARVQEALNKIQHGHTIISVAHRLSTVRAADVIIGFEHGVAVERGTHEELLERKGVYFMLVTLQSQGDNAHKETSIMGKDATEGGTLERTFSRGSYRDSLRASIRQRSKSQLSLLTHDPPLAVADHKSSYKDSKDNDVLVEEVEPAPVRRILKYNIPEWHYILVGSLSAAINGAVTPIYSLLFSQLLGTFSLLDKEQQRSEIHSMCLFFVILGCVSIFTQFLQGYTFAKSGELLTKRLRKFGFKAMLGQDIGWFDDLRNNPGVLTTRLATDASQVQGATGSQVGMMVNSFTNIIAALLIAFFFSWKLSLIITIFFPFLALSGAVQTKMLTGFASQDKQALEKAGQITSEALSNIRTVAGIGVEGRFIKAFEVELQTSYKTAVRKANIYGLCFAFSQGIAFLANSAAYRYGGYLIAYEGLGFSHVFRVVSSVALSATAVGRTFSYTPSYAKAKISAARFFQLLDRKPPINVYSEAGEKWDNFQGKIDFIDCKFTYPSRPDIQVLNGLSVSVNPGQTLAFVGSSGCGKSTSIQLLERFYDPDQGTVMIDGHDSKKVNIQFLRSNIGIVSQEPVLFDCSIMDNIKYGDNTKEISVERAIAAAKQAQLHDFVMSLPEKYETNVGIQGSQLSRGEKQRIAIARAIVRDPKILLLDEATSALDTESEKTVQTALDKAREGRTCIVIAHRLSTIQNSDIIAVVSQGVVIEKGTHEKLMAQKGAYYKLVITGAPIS

SMILES | pIC50 (Bile salt export pump [1]) | pIC50 (Bile salt export pump [2])
Cc1onc(-c2c(Cl)cccc2Cl)c1C(=O)N[C@@H]1C(=O)N2[C@@H]1SC(C)(C)[C@@H]2C(=O)O [DICLOXACILLIN] | 3.95 | 4.16
NNc1nnc(NN)c2ccccc12 [DIHYDRALAZINE] | < 3.00 | < 3.00
COc1cc2c(cc1OC)C(=O)C(CC1CCN(Cc3ccccc3)CC1)C2 (stereo not drawn) [DONEPEZIL] | 3.28 | 3.69
NCCc1ccc(O)c(O)c1 [DOPAMINE] | < 3.00 | < 3.00
CCC(=O)O[C@H]1[C@H](O[C@@H]2[C@@H](C)[C@H](O[C@H]3C[C@@](C)(OC)[C@@H](O)[C@H](C)O3)[C@@H](C)C(=O)O[C@H](CC)[C@@](C)(O)[C@H](O)[C@@H](C)C(=O)[C@H](C)C[C@@]2(C)O)O[C@H](C)C[C@@H]1N(C)C [ERYTHROMYCIN ESTOLATE] | 4.94 | 5.39
NC(N)=Nc1nc(CSCCC(N)=NS(N)(=O)=O)cs1 [FAMOTIDINE] | < 3.00 | < 3.00
NC(=O)OCC(COC(N)=O)c1ccccc1 [FELBAMATE] | < 3.00 | < 3.00
O=C(O)Cc1csc(-c2ccc(Cl)cc2)n1 [FENCLOZIC ACID] | < 3.00 | < 3.00
O=c1[nH]c(=O)n([C@@H]2O[C@H](CO)[C@@H](O)[C@@H]2F)cc1I [FIALURIDINE] | < 3.00 | < 3.00
Cc1onc(-c2c(F)cccc2Cl)c1C(=O)N[C@@H]1C(=O)N2[C@@H]1SC(C)(C)[C@@H]2C(=O)O [FLOXACILLIN] | 3.37 | 3.68
CCOC(=O)c1ncn2c1CN(C)C(=O)c1cc(F)ccc1-2 [FLUMAZENIL] | < 3.00 | < 3.00
CC(C)C(=O)Nc1ccc([N+](=O)[O-])c(C(F)(F)F)c1 [FLUTAMIDE] | 4.10 | 3.84
CC(=O)O[C@H]1C[C@@]2(C)[C@@H](C[C@@H](O)[C@H]3[C@@]4(C)CC[C@@H](O)[C@@H](C)[C@@H]4CC[C@@]32C)/C1=C(\CCC=C(C)C)C(=O)O [FUSIDIC ACID] | 4.76 | 4.94
O=C(OCC(O)CO)c1ccccc1Nc1ccnc2cc(Cl)ccc12 (stereo not drawn) [GLAFENINE] | 4.49 | 4.65
Cc1ccc(S(=O)(=O)NC(=O)NN2CC3CCCC3C2)cc1 (stereo not drawn) [GLICLAZIDE] | < 3.00 | < 3.00
CC(C)Cc1ccc(C(C)C(=O)O)cc1 (stereo not drawn) [IBUPROFEN] | 3.54 | 3.22
CC(C)NNC(=O)c1ccncc1 [IPRONIAZID] | < 3.00 | < 3.00
NNC(=O)c1ccncc1 [ISONIAZID] | < 3.00 | < 3.00
CC(C)NCC(O)c1ccc(O)c(O)c1 (stereo not drawn) [ISOPROTERENOL] | < 3.00 | < 3.00
CN1CCC(=C2c3ccccc3CC(=O)c3sccc32)CC1 [KETOTIFEN] | < 3.00 | 3.13
Cc1oncc1C(=O)Nc1ccc(C(F)(F)F)cc1 [LEFLUNOMIDE] | 3.95 | 3.75
C[C@H]1COc2c(N3CCN(C)CC3)c(F)cc3c(=O)c(C(=O)O)cn1c23 [LEVOFLOXACIN] | < 3.00 | < 3.00
CN(Cc1cnc2nc(N)nc(N)c2n1)c1ccc(C(=O)N[C@@H](CCC(=O)O)C(=O)O)cc1 [METHOTREXATE] | < 3.00 | < 3.00
C[C@](N)(Cc1ccc(O)c(O)c1)C(=O)O [METHYLDOPA] | < 3.00 | < 3.00
CCc1nn(CCCN2CCN(c3cccc(Cl)c3)CC2)c(=O)n1CCOc1ccccc1 [NEFAZODONE] | 4.76 | 5.38
COC(=O)C1=C(C)NC(C)=C(C(=O)OC)C1c1ccccc1[N+](=O)[O-] [NIFEDIPINE] | 4.34 | 4.51
CN1Cc2c(N)cccc2C(c2ccccc2)C1 (stereo not drawn) [NOMIFENSINE] | < 3.00 | < 3.00
C#CCN(C)Cc1ccccc1 [PARGYLINE] | < 3.00 | < 3.00
CC(C)(S)[C@@H](N)C(=O)O [PENICILLAMINE] | < 3.00 | < 3.00
